Each block holds one compound with its values, some of them ahead of it.
Tests used:
human A3 AR [1] = target: T1, human A3 AR (Homo sapiens, UniProt P0DMS8); experiment: cell-based; conditions: CHO, read-out: Ca2+ Emax
T1 sequence (P0DMS8 1-318): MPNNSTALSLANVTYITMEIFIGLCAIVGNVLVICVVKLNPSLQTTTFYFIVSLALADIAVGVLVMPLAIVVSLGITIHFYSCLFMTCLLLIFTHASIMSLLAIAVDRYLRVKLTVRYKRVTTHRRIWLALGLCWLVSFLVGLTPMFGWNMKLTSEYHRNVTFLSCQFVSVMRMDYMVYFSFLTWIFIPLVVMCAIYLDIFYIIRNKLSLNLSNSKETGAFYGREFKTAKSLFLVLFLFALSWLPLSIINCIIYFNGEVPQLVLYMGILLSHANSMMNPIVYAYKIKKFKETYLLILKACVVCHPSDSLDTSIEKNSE

human A3 AR [2] = target: T1, human A3 AR; experiment: cell-based; conditions: CHO, read-out: β-arrestin2 Emax
human A3 AR [3] = target: T1, human A3 AR; experiment: Membrane hyperpolarization; conditions: for Emax: CHO, read-out: hyperpolarization Emax; for agonist activity in membrane hyperpolarization assay, in words: agonist alone
human A3 AR [4] = target: T1, human A3 AR; experiment: Cyclic AMP accumulation assay
human A3 AR [5] = target: T1, human A3 AR; conditions: no agonist
human A3 AR [6] = target: T1, human A3 AR; conditions: LUF6000 10 μM
human A3 AR [7] = target: T1, human A3 AR; conditions: agonist Cl-IB-MECA; LUF6000 1, 3, and 10 μM
other subtypes of ARs = conditions: concentrations up to 10 μM; cited from earlier work

Emax (human A3 AR [1]): 55.2 ± 3.4% | Emax (human A3 AR [2]): 104 ± 5% | Emax (human A3 AR [3]): 58.3 ± 3.6% | Emax (human A3 AR [4]; CHO, read-out: cyclic AMP Emax): 95.8 ± 4.8%
SMILES: CNC(=O)[C@H]1O[C@@H](n2cnc3c(NCc4cccc(I)c4)nc(Cl)nc32)[C@H](O)[C@@H]1O [Cl-IB-MECA, 2-chloro-N^6-(3-iodobenzyl)adenosine-5′-N-methyluronamide]

SMILES: Clc1ccc(Nc2nc3ccccc3c3[nH]c(C4CCC4)nc23)cc1Cl [LUF5999, N-(3,4-dichloro-phenyl)-2-cyclobutyl-1H-imidazo[4,5-c]quinolin-4-amine]
effect on agonist action (efficacy and potency), in words (human A3 AR [4]; agonist Cl-IB-MECA): concentration-dependently increasing efficacy while decreasing potency

SMILES: Clc1ccc(Nc2nc3ccccc3c3[nH]c(C4CCCCC4)nc23)cc1Cl [LUF6000, N-(3,4-dichloro-phenyl)-2-cyclohexyl-1H-imidazo[4,5-c]quinolin-4-amine]
effect of modulator alone on intracellular calcium mobilization (human A3 AR [5]): had no effect | enhancement of the effect of Cl-IB-MECA (human A3 AR [6]; agonist Cl-IB-MECA): less than 10% | enhancement of the effect of NECA (human A3 AR [6]; agonist NECA): less than 10% | enhancement of the efficacy of MRS542 (human A3 AR [6]; partial agonist MRS542): about 40% | effect on the efficacy of Cl-IB-MECA in inducing ERK1/2 activation (human A3 AR [7]): had no effect | binding at the other subtypes of ARs (other subtypes of ARs): did not bind appreciably | further increase of the efficacy of Cl-IB-MECA at higher concentration (human A3 AR [3]; agonist Cl-IB-MECA, LUF6000 30 μM): did not induce a further increase | effect on the efficacy of adenosine (human A3 AR [3]; agonist adenosine, data not shown): did not show any effect | enhancement of the residual activity of inosine, MRS541 and LUF5833 (human A3 AR [3]; ligands inosine, MRS541, LUF5833): did not show any enhancement | effect of modulator alone on membrane hyperpolarization (human A3 AR [3]; no agonist): did not show any effect | concentration at which the efficacy-enhancing effect reaches a maximum (human A3 AR [4]; agonist Cl-IB-MECA): approx. 10 μM | concentration from which the efficacy-enhancing effect starts (human A3 AR [4]; agonist Cl-IB-MECA): ≤ 1 µM | relative enhancement of the efficacy of Cl-IB-MECA (human A3 AR [4]; agonist Cl-IB-MECA, LUF6000 10 μM): 50% | further enhancement at higher concentration (human A3 AR [4]; agonist Cl-IB-MECA, LUF6000 30 μM, data not shown): did not cause further enhancement | effect on agonist potency (human A3 AR [4]; agonist Cl-IB-MECA, modulator 10 μM or lower): did not significantly affect | maximum enhancement of the efficacy of NECA (human A3 AR [4]; agonist NECA, LUF6000 10 μM): about 16% | efficacy of inosine in presence of LUF6000, % of the level of NECA (human A3 AR [4]; agonist inosine, LUF6000 10 μM): 85% | effect on the inability of MRS1220 and MRS1191 to inhibit forskolin-stimulated cyclic AMP levels (human A3 AR [4]; nonnucleoside A3 AR antagonists MRS1220 and MRS1191, data not shown): did not show any effect | effect on the efficacy of CCPA (human A3 AR [4]; nucleoside antagonist CCPA): no effect | effect on the efficacy of MRS542 (human A3 AR [4]; nucleoside antagonist MRS542): no effect | efficacy of LUF5833, % of the control level (agonist alone) (human A3 AR [4]; partial agonist LUF5833, LUF6000 10 μM): over 200% | efficacy of MRS541, % of the control level (agonist alone) (human A3 AR [4]; partial agonist MRS541, LUF6000 10 μM): over 200%

SMILES: Clc1ccc(Nc2nc3ccccc3c3[nH]cnc23)cc1Cl [LUF6001, N-(3,4-dichloro-phenyl)-1H-imidazo[4,5-c]quinolin-4-amine]
effect on agonist action (efficacy and potency), in words (human A3 AR [4]; agonist Cl-IB-MECA): slightly decreased both the efficacy and potency

agonist activity in membrane hyperpolarization assay, in words (human A3 AR [3]): did not show any significant activation
SMILES: OC[C@H]1O[C@@H](n2cnc3c(NCc4cccc(I)c4)ncnc32)[C@H](O)[C@@H]1O [MRS541, N^6-(3-iodobenzyl)adenosine]

Emax (human A3 AR [1]): 7.5 ± 2.5% | Emax (human A3 AR [2]): 41.1 ± 3.2% | Emax (human A3 AR [3]): -3.8 ± 5.6% | agonist activity in membrane hyperpolarization assay, in words (human A3 AR [3]): did not show any agonist activity
SMILES: OC[C@H]1O[C@@H](n2cnc3c(NCc4cccc(I)c4)nc(Cl)nc32)[C@H](O)[C@@H]1O [MRS542, 2-chloro-N^6-(3-iodobenzyl)adenosine]

agonist activity in membrane hyperpolarization assay, in words (human A3 AR [3]): equally efficacious as NECA
SMILES: Nc1ncnc2c1ncn2[C@@H]1O[C@H](CO)[C@@H](O)[C@H]1O [adenosine]

agonist activity in membrane hyperpolarization assay, in words (human A3 AR [3]): did not show any significant activation
SMILES: O=c1[nH]cnc2c1ncn2[C@@H]1O[C@H](CO)[C@@H](O)[C@H]1O [inosine]

Reference: publication PMC3152598 (Biochemical pharmacology, 2011)
